Structures are written as SMILES.

In this test the target is T1, CFTR (Homo sapiens, UniProt P13569).
T1 construct: expressed in transfected cells
T1 sequence (P13569 whole entry): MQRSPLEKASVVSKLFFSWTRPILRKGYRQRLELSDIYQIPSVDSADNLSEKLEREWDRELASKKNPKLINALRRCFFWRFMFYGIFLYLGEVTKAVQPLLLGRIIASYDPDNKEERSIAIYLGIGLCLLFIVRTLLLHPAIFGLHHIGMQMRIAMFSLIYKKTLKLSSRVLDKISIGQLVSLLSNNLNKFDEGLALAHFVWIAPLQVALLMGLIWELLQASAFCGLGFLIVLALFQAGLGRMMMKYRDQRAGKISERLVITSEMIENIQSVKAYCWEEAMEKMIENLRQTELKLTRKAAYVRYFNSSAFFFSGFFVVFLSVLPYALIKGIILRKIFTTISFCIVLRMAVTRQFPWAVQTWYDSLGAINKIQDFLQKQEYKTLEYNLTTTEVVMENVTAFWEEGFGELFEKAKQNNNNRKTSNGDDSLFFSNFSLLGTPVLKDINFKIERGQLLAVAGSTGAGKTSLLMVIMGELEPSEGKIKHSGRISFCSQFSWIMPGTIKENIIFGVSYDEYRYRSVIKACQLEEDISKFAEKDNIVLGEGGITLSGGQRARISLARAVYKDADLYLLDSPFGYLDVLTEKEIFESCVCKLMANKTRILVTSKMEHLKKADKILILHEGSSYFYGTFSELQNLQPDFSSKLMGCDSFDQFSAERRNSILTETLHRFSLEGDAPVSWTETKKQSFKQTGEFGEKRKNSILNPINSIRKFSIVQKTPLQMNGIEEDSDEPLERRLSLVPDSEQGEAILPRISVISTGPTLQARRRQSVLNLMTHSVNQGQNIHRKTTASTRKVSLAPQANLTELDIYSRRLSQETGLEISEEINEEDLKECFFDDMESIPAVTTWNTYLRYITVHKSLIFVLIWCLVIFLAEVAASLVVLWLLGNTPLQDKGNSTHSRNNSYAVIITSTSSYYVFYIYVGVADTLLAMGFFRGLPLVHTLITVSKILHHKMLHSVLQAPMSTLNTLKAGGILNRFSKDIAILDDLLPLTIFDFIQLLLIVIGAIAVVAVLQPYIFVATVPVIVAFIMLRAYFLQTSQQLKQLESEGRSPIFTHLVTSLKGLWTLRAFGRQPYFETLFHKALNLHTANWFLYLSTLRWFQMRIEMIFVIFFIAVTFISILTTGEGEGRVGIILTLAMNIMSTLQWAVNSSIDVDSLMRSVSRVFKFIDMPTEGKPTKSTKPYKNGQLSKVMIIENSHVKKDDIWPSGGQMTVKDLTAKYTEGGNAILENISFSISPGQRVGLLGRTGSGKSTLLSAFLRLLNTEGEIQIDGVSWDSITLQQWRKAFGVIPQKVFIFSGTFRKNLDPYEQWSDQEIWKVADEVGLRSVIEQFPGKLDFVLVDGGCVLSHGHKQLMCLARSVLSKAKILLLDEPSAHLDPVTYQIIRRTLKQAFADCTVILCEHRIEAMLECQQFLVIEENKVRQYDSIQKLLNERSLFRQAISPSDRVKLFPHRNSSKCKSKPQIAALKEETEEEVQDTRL
Description: IonWorks Quattro assay (CFTR Inhibitor Assay), whole-cell planar patch clamp. Type of test: cell-based. The conditions noted are these: inward current (−100 mV); CHO cells stably expressing WT-CFTR; CFTR activated by 10 μM forskolin; test compound incubated 10 min. The source says: CFTR activity can be quantified by electrophysiology methods, using the whole-cell configuration of the patch clamp technique (Hamill O, Marty A, Neher E, Sakmann B and Sigworth F. ‘Improved patch-clamp techniques for high resolution current recording from cells and cell-free membrane patches.’ Pflugers Archive 1981 391: 85-100). This assay directly measures the currents associated with chloride flow through CFTR channels whilst either maintaining or adjusting the transmembrane voltage. This assay can use either single glass micropipettes or parallel planar arrays to measure CFTR activity from native or recombinant cell systems. Currents measured using parallel planar arrays can be quantified using an appropriately equipped instrument such as the IonWorks Quattro (Molecular Devices Corporation, Sunnyvale, Calif.). The Quattro system can measure CFTR currents from either a single cell per recording well (HT configuration) or alternatively from a population of 64 cells per well (Population Patch Clamp PPC) (Finkel A, Wittel A, Yang N, Handran S, Hughes J, Costantin J. ‘Population patch clamp improves data consistency and success rates in the measurement of ionic currents.’ J Biomol Screen. 2006 August; 11 (5):488-96).
Chinese hamster ovary (CHO) cells stably expressing WT-CFTR channels were used for the IonWorks Quattro experiments. Cells were maintained at 37° C. in 5% v/v CO2 at 100% humidity in MEM alpha medium supplemented with 10% (v/v) FCS, 100 U/mL Penicillin/Streptomycin, and 100 μg/L methotrexate. For experiments, cells were grown in 225 cm^2 tissue culture flasks until almost confluent. Cells were removed from the flask using trypsin-EDTA and resuspended in extracellular recording solution for immediate experimentation.
Cells, at a density of 1.5-2 million per mL, were placed on the Quattro system, added to the planar patch plate and seals allowed to establish for 5-10 mins. After assessing seal resistances (typically >50 MΩ), whole-cell access was obtained by perforation with 100 μg/mL amphotericin B. Baseline currents were measured by a pre-compound scan obtained by application of a voltage ramp from −100 to +100 mV. CFTR was activated by the addition of 10 μM forskolin to each of the 384 wells of the patch plate. After 5 min incubation the post-compound 1 currents were measured, again by application of a voltage ramp from −100 to +100 mV. Test compounds, diluted from 10 mM stocks in DMSO in extracellular solution were then added to the patch plate and were incubated for a further 10 min. The post-compound 2 currents were measured by the application of the same voltage ramp from −100 to +100 mV. The inhibition of CFTR was determined from the difference in current between the forskolin addition (post-compound 1) and the test compound (post-compound 2). This was determined at both −100 mV and +100 mV which represents the inward and outward current respectively.
Extracellular solution (ECS): 145 mM NaCl, 4 mM CsCl, 5 mM D-glucose, 10 mM TES, 1 mM CaCl2, 1 mM MgCl2, pH 7.4 NaOH
Intracellular solution (ICS): 113 mM L-Aspartic acid, 113 mM CsOH, 27 mM CsCl, 1 mM NaCl, 1 mM MgCl2, 1 mM EGTA, 10 mM TES. pH 7.2 with CsOH. Filter sterilized before use.
Turning to `Cn1c(=O)c2c(-c3cccc(C#N)c3)n3c(c2n(C)c1=O)[C@H](c1nc(Cl)cs1)C[C@@H](CO)C3` (single isomer, unassigned) [Example 23.1a, 3-(10-(4-chlorothiazol-2-yl)-8-(hydroxymethyl)-1,3-dimethyl-2,4-dioxo-1,2,3,4,7,8,9,10-octahydropyrimido[4,5-a]indolizin-5-yl)benzonitrile], the IC50 amounted to 0.1 µM.
The compound `Cn1c(=O)c2c(-c3cccc(C#N)c3)n3c(c2n(C)c1=O)C(c1nc(Cl)cs1)CCCC3` (single isomer, unassigned) [Example 31, 3-(11-(4-chlorothiazol-2-yl)-1,3-dimethyl-2,4-dioxo-2,3,4,7,8,9,10,11-octahydro-1H-pyrimido[4′,5′:3,4]pyrrolo[1,2-a]azepin-5-yl)benzonitrile] registered an IC50 of 1.45 µM.
The value for `CCOc1cccc(-c2c3c(=O)n(C)c(=O)n(C)c3c3n2CCSC3c2ccc(Cl)o2)c1` (single isomer, unassigned) [Example 15.12, 10-(5-Chlorofuran-2-yl)-5-(3-ethoxyphenyl)-1,3-dimethyl-7,8-dihydro-1H-pyrimido[4′,5′:3,4]pyrrolo[2,1-c][1,4]thiazine-2,4(3H,10H)-dione] was 9.27 µM; that for `COCC(=O)NC[C@H]1Cn2c(-c3nc(C)cs3)c3c(=O)n(C)c(=O)n(C)c3c2[C@H](c2ccc(Cl)o2)S1` (single isomer, unassigned) [Example 26.1a, N-((10-(5-chlorofuran-2-yl)-1,3-dimethyl-5-(4-methylthiazol-2-yl)-2,4-dioxo-2,3,4,7,8,10-hexahydro-1H-pyrimido[4′,5′:3,4]pyrrolo[2,1-c][1,4]thiazin-8-yl)methyl)-2-methoxyacetamide] was 0.23 µM; that for `Cc1csc(C2CCNn3c(-c4ccccc4)c4c(=O)n(C)c(=O)n(C)c4c32)n1` (racemic) [Example 10.0, 1,3-Dimethyl-10-(4-methylthiazol-2-yl)-5-phenyl-7,8,9,10-tetrahydropyrimido[4′,5′:3,4]pyrrolo[1,2-b]pyridazine-2,4(1H,3H)-dione] was 2.15 µM.
In turn, `Cc1ccc([C@@H]2CCCn3c(-c4ccccc4)c4c(=O)n(C)c(=O)n(C)c4c32)o1` [Example 6.3, (R)-1,3-Dimethyl-10-(5-methylfuran-2-yl)-5-phenyl-7,8,9,10-tetrahydropyrimido[4,5-a]indolizine-2,4(1H,3H)-dione] yielded an IC50 of 2.24 µM.
In turn, `CN(C)C[C@@H]1Cn2c(-c3ccccc3)c3c(=O)n(C)c(=O)n(C)c3c2[C@@H](c2ccc(Cl)o2)S1` (single isomer, unassigned) [Example 14a, 10-(5-chlorofuran-2-yl)-8-((dimethylamino)methyl)-1,3-dimethyl-5-phenyl-7,8-dihydro-1H-pyrimido[4′,5′:3,4]pyrrolo[2,1-c][1,4]thiazine-2,4(3H,10H)-dione] registered an IC50 of 0.31 µM.
The value for `Cc1csc(-c2c3c(=O)n(C)c(=O)n(C)c3c3n2C[C@H](CO)S[C@H]3c2ccc(Cl)o2)n1` (single isomer, unassigned) [Example 17, 10-(5-chlorofuran-2-yl)-8-(hydroxymethyl)-1,3-dimethyl-5-(4-methylthiazol-2-yl)-7,8-dihydro-1H-pyrimido[4′,5′:3,4]pyrrolo[2,1-c][1,4]thiazine-2,4(3H,10H)-dione] was 0.1 µM; that for `Cn1c(=O)c2c(-c3ccccc3)n3c(c2n(C)c1=O)C(c1ccc(Cl)o1)SC(CO)C3` (single isomer, unassigned) [Example 12.a, 10-(5-chlorofuran-2-yl)-8-(hydroxymethyl)-1,3-dimethyl-5-phenyl-7,8-dihydro-1H-pyrimido[4′,5′:3,4]pyrrolo[2,1-c][1,4]thiazine-2,4(3H,10H)-dione] was 0.2 µM.
For the compound `Cn1c(=O)c2c(-c3ccccc3)n3c(c2n(C)c1=O)C(c1nc(Cl)cs1)C(C)(C)C3` (single isomer, unassigned) [Example 21a, 9-(4-chlorothiazol-2-yl)-1,3,8,8-tetramethyl-5-phenyl-8,9-dihydro-1H-pyrimido[4,5-a]pyrrolizine-2,4(3H,7H)-dione], the IC50 worked out at 0.33 µM.
`Cc1csc(-c2c3c(=O)n(C)c(=O)n(C)c3c3n2C[C@H](CNS(C)(=O)=O)S[C@H]3c2ccc(Cl)o2)n1` (single isomer, unassigned) [Example 26a, N-((10-(5-chlorofuran-2-yl)-1,3-dimethyl-5-(4-methylthiazol-2-yl)-2,4-dioxo-2,3,4,7,8,10-hexahydro-1H-pyrimido[4′,5′:3,4]pyrrolo[2,1-c][1,4]thiazin-8-yl)methyl)methanesulfonamide] gave an IC50 of 0.15 µM.
In turn, `Cc1csc(-c2c3c(=O)n(C)c(=O)n(C)c3c3n2C[C@@H](CN2CCOC2=O)S[C@@H]3c2ccc(Cl)o2)n1` (single isomer, unassigned) [Example 30a, 10-(5-chlorofuran-2-yl)-1,3-dimethyl-5-(4-methylthiazol-2-yl)-8-((2-oxooxazolidin-3-yl)methyl)-7,8-dihydro-1H-pyrimido[4′,5′:3,4]pyrrolo[2,1-c][1,4]thiazine-2,4(3H,10H)-dione] came in with an IC50 of 0.16 µM.
Take `CCn1c(=O)c2c(-c3ccccc3)n3c(c2n(CC)c1=O)C(c1ccc(Cl)o1)SCC3` (single isomer, unassigned) [Example 4.2, 10-(5-Chlorofuran-2-yl)-1,3-diethyl-5-phenyl-7,8-dihydro-1H-pyrimido[4′,5′:3,4]pyrrolo[2,1-c][1,4]thiazine-2,4(3H,10H)-dione]: inhibition was half-maximal at 1.67 µM (IC50).
On to `Cn1c(=O)c2c(-c3nc(CO)cs3)n3c(c2n(C)c1=O)C(c1nc(Cl)cs1)CCC3` (single isomer, unassigned) [Example 13.1a, 10-(4-chlorothiazol-2-yl)-5-(4-(hydroxymethyl)thiazol-2-yl)-1,3-dimethyl-7,8,9,10-tetrahydropyrimido[4,5-a]indolizine-2,4(1H,3H)-dione], for which the IC50 amounted to 0.1 µM.
As to `Cc1csc(C2CCNn3c(-c4cccc(Cl)c4)c4c(=O)n(C)c(=O)n(C)c4c32)n1` (racemic) [Example 10.2, 5-(3-Chlorophenyl)-1,3-dimethyl-10-(4-methylthiazol-2-yl)-7,8,9,10-tetrahydropyrimido[4′,5′:3,4]pyrrolo[1,2-b]pyridazine-2,4(1H,3H)-dione], the IC50 turned out to be 0.7 µM.

The record behind these values is patent publication US20140171417A1, “TRICYCLIC COMPOUNDS” (NOVARTIS AG, priority 2012, published 2014).
